In patent US20160010086A1, “OLIGOMERIC COMPOUNDS AND EXCIPIENTS” (ISIS PHARMACEUTICALS, INC., priority 2009, published 2016):

Assays:
PTEN mRNA = test: Antisense activity (pharmacodynamics) of ISIS 116847 in mouse liver; type: in vivo, mice
Experimental: Tissues are homogenized in guanidine isothyocyanate buffer (4 M guanidine isothiocyanate, 25 mM EDTA, 1 M β-mercaptoethanol, 50 mM Tris-HCl, pH 6) immediately following sacrifice. RNA is extracted using RNeasy columns (Qiagen) according to manufacturer's protocol. RNA is eluted from the columns with water. RNA samples are analyzed by fluorescence-based quantitative RT-PCR using an Applied Biosystems 7700 sequence detector. Levels of target RNAs as well as those of cyclophilin A, a housekeeping gene, are determined. Target RNA levels were normalized to cyclophilin levels for each RNA sample. Primers used for determination of PTEN RNA level are as follows: FP 5′ […] 3′ (SEQ ID NO: 3), RP 5′ […] 3′ (SEQ ID NO: 4), and PR 5′ 6FAM-[…]-TAMRA 3′(SEQ ID NO 5). Primers used for determination of cyclophilin A RNA level are as follows: FP 5′ TCGCCGCTTGCTGCA 3′(SEQ ID NO: 6), RP 5′ ATCGGCCGTGATGTCGA 3′(SEQ ID NO: 7), and PR 5′ 6FAM-[…]-TAMRA 3′(SEQ ID NO: 8).

[1] = mouse, in vivo

For “5′-CTGCT agcctctgga TTTGA-3′ (CTGCTAGCCTCTGGATTTGA; chemistry not given here) [ISIS 116847]”, the “activity of the active antisense oligonucleotide” value (PTEN mRNA; co-administered with a nonsense oligonucleotide) was “enhanced”, the “pharmacodynamics with increased liver drug concentration” value (PTEN mRNA; slower infusion, lowest doses) was “did not provide improved pharmacodynamics” and the “uptake in whole liver” value [1] was “favored at lower plasma concentrations”.
